Measurements from patent US9029409B2, “Isoxazolines as therapeutic agents” (AbbVie Inc., priority 2011, dated 2015).
pIC50: −log10 of the molar value.

Each compound was assayed against T1, recombinant human MMP13 catalytic domain (CD) (Homo sapiens, UniProt P45452) (assay: MMP-13 catalytic domain FRET enzyme assay). Conditions: recombinant human MMP-13 catalytic domain.
T1 construct: catalytic domain (CD) construct encompassing residues 20-274 (SWISS-PROT P45452); made in house
Type: biochemical
How it was run: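 Human MMP-13 catalytic domain (res 20-274, E. coli-expressed), 0.4 nM, cleaving FRET peptide (0.25 μM) in Tris pH 7.5/CaCl2/NaCl/Brij 35, 5% DMSO, 60 min RT; EDTA-quenched, fluorescence 485/535 nm. IC50 from sigmoidal fit of % inhibition. Some compounds also run on APMA-activated full-length MMP13 (2 nM).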

Compound	pIC50
COc1cc(CNC(=O)c2cc(C3=NOC(CC4CCN(C(C)=O)CC4)C3)nc(C)n2)ccc1F (stereo not drawn)	7.00 to 8.00
COc1cc(CNC(=O)c2cc(C3=NOC(c4cncnc4)C3)nc(C)n2)ccc1F (stereo not drawn)	7.00 to 8.00
COc1cc(CNC(=O)c2cc(C3=NOC(c4ccc(C(C)(C)O)cc4)C3)nc(C)n2)ccc1F (stereo not drawn)	7.00 to 8.00
COc1cc(CNC(=O)c2cc(C3=NOC(CC4CCN(C(=O)CO)CC4)C3)nc(C)n2)ccc1F (stereo not drawn)	7.00 to 8.00
COc1cc(CNC(=O)c2cc(C3=NOC(CC4CCN(S(C)(=O)=O)CC4)C3)nc(C)n2)ccc1F (stereo not drawn)	7.00 to 8.00
COc1cc(CNC(=O)c2cc(C3=NOC(c4ccnc(C(N)=O)c4)C3)nc(C)n2)ccc1F (stereo not drawn)	7.00 to 8.00
COc1cc([C@H](C)NC(=O)c2cc(C3=NOC(c4ccccc4)C3)nc(C)n2)ccc1F (stereo partly drawn)	< 6.00
COc1cc(CNC(=O)c2cc(C3=NOC(C4CCN(C(C)=O)CC4)C3)nc(C)n2)ccc1F (stereo not drawn)	7.00 to 8.00
COc1cc(CNC(=O)c2cc(C3=NOC(C4CCN(C(=O)CO)CC4)C3)nc(C)n2)ccc1F (stereo not drawn)	7.00 to 8.00
COc1cc(CNC(=O)c2cc(C3=NO[C@@H]([C@@H]4CO[C@@H](CO)CO4)C3)nc(C)n2)ccc1F	6.00 to 7.00
COc1cc(CNC(=O)c2cc(C3=NO[C@H]([C@@H]4CO[C@@H](CO)CO4)C3)nc(C)n2)ccc1F	7.00 to 8.00
COc1cc(CNC(=O)c2cc(C3=NOC(C(=O)N4CCOCC4)C3)nc(C)n2)ccc1F (stereo not drawn)	< 6.00
COc1cc(CNC(=O)c2cc(C3=NOC(c4ccnc(C(C)(C)O)c4)C3)nc(C)n2)ccc1F (stereo not drawn)	7.00 to 8.00
COc1cc(CNC(=O)c2cc(C3=NOC(c4nn[nH]n4)C3)nc(C)n2)ccc1F (stereo not drawn)	< 6.00
COc1cc(CNC(=O)c2cc(C3=NOC(C4CCN(C(=O)CS(C)(=O)=O)CC4)C3)nc(C)n2)ccc1F (stereo not drawn)	7.00 to 8.00
COc1cc(CNC(=O)c2cc(C3=NOC(C4CCN(C(=O)Nc5ccon5)CC4)C3)nc(C)n2)ccc1F (stereo not drawn)	7.00 to 8.00
COc1cc(CNC(=O)c2cc(C3=NO[C@H]([C@H]4CO[C@H](CS(C)(=O)=O)CO4)C3)nc(C)n2)ccc1F	7.00 to 8.00
COc1cc(CNC(=O)c2cc(C3=NOC(CN4CCOCC4)C3)nc(C)n2)ccc1F (stereo not drawn)	< 6.00
COc1cc(CNC(=O)c2cc(C3=NOC(c4c[nH]cn4)C3)nc(C)n2)ccc1F (stereo not drawn)	< 6.00
COc1cc(CNC(=O)c2cc(C3=NNC(c4cccnc4)C3)nc(C)n2)ccc1F (stereo not drawn)	7.00 to 8.00
COc1cc(CNC(=O)c2cc(C3=NO[C@@H](c4ccn(C)c(=O)c4)C3)nc(C)n2)ccc1F	6.00 to 7.00
CC(=O)N[C@H]1CC[C@H](C2CC(c3cc(C(=O)NCc4ccnc5ccccc45)nc(C)n3)=NO2)CC1 (stereo partly drawn)	6.00 to 7.00

Compound	pIC50
Cc1nc(C(=O)NCc2ccnc3ccccc23)cc(C2=NO[C@H]([C@H]3CO[C@H](CO)CO3)C2)n1	6.00 to 7.00
Cc1nc(C(=O)NCc2ccnc3ccccc23)cc(C2=NO[C@@H]([C@H]3CO[C@H](CO)CO3)C2)n1	6.00 to 7.00
Cc1nc(C(=O)NCc2ccc3c(c2)NC(=O)CC3)cc(C2=NO[C@H]([C@H]3CO[C@H](CO)CO3)C2)n1	7.00 to 8.00
Cc1nc(C(=O)NCc2ccc3c(c2)NC(=O)CC3)cc(C2=NO[C@@H]([C@H]3CO[C@H](CO)CO3)C2)n1	6.00 to 7.00
CNC(=O)Cn1ccc(C2CC(c3cc(C(=O)NCc4ccc(F)c(OC)c4)nc(C)n3)=NO2)cc1=O (stereo not drawn)	7.00 to 8.00
Cc1nc(C(=O)NCc2ccc(F)c(F)c2)cc(C2=NO[C@@H](c3ccc(=O)n(C)c3)C2)n1	6.00 to 7.00
COc1ccc(C2CC(c3cc(C(=O)NCc4ccc(F)c(OC)c4)nc(C)n3)=NO2)nn1 (stereo not drawn)	7.00 to 8.00
CNC(=O)Cn1cc([C@H]2CC(c3cc(C(=O)NCc4ccc(F)c(OC)c4)nc(C)n3)=NO2)ccc1=O	7.00 to 8.00
COc1cc(CNC(=O)c2cc(C3=NOC(c4ccc(=O)n(CC(=O)N(C)C)c4)C3)nc(C)n2)ccc1F (stereo not drawn)	7.00 to 8.00
COc1cccc(C2CC(c3cc(C(=O)NCc4ccc(F)c(OC)c4)nc(C)n3)=NO2)n1 (stereo not drawn)	7.00 to 8.00
COc1cc(CNC(=O)c2cc(C3=NOC(c4ccc(=O)n(C5CC5)n4)C3)nc(C)n2)ccc1F (stereo not drawn)	7.00 to 8.00
COc1cc(CNC(=O)c2cc(C3=NOC(c4ccn(C5CC5)c(=O)c4)C3)nc(C)n2)ccc1F (stereo not drawn)	7.00 to 8.00
COc1cc(CNC(=O)c2cc(C3=NOC(c4ccn(CC(=O)N(C)C)c(=O)c4)C3)nc(C)n2)ccc1F (stereo not drawn)	7.00 to 8.00
CNC(=O)Cn1nc(C2CC(c3cc(C(=O)NCc4ccc(F)c(OC)c4)nc(C)n3)=NO2)ccc1=O (stereo not drawn)	7.00 to 8.00
Cc1nc(C(=O)NCc2ccc(=O)n(C)c2)cc(C2=NO[C@H]([C@H]3CO[C@H](CO)CO3)C2)n1	7.00 to 8.00
Cc1nc(C(=O)NCc2ccc(=O)n(C)c2)cc(C2=NO[C@@H]([C@H]3CO[C@H](CO)CO3)C2)n1	6.00 to 7.00
COc1cc(CNC(=O)c2cc(C3=NO[C@@H](c4ccc(=O)n(C5CC5)c4)C3)nc(C)n2)ccc1F	7.00 to 8.00
COc1cc(CNC(=O)c2cc(C3=NOC(c4ccc(=O)n(CC(=O)N(C)C)n4)C3)nc(C)n2)ccc1F (stereo not drawn)	7.00 to 8.00
COc1cc(CNC(=O)c2cc(C3=NOC(c4ccccc4)C3)c(=O)n(C)n2)ccc1F (stereo not drawn)	7.00 to 8.00
COc1cc(CNC(=O)c2cc(C3=NOC(c4ccn(CC(=O)N(C)OC)c(=O)c4)C3)nc(C)n2)ccc1F (stereo not drawn)	7.00 to 8.00
COc1cc(CNC(=O)c2cc(C3=NOC(c4ccn(CC(=O)NC(C)C)c(=O)c4)C3)nc(C)n2)ccc1F (stereo not drawn)	7.00 to 8.00

The remaining lines, values ahead:

pIC50	Compound
7.00 to 8.00	COc1ccc(CNC(=O)c2cc(C3=NOC(c4ccc(OCCO)cc4)C3)nc(C)n2)cc1 (stereo not drawn)
7.00 to 8.00	COc1ccc(CNC(=O)c2cc(C3=NOC(c4ccccc4)C3)nc(C)n2)cc1 (stereo not drawn)
> 8.00	COc1cc(CNC(=O)c2cc(C3=NOC(c4cccc(CN5CCOCC5)c4)C3)nc(C)n2)ccc1F (stereo not drawn)
7.00 to 8.00	CNC(=O)c1cccc(C2CC(c3cc(C(=O)NCc4ccc(F)c(OC)c4)nc(C)n3)=NO2)c1 (stereo not drawn)
> 8.00	CNC(=O)c1ccc(C2CC(c3cc(C(=O)NCc4ccc(F)c(OC)c4)nc(C)n3)=NO2)cc1 (stereo not drawn)
> 8.00	COc1cc(CNC(=O)c2cc(C3=NOC(c4ccsc4)C3)nc(C)n2)ccc1F (stereo not drawn)
> 8.00	COc1cc(CNC(=O)c2cc(C3=NOC(c4ccncc4)C3)nc(C)n2)ccc1F (stereo not drawn)
> 8.00	COc1cc(CNC(=O)c2cc(C3=NOC(c4ccc(CN5CCS(=O)(=O)CC5)cc4)C3)nc(C)n2)ccc1F (stereo not drawn)
7.00 to 8.00	COc1cc(CNC(=O)c2cc(C3=NOC(c4ccc(C(=O)NCCO)cc4)C3)nc(C)n2)ccc1F (stereo not drawn)
> 8.00	COc1cc(CNC(=O)c2cc(C3=NOC(C4CCN(S(C)(=O)=O)CC4)C3)nc(C)n2)ccc1F (stereo not drawn)
> 8.00	COc1cc(CNC(=O)c2cc(C3=NO[C@H]([C@H]4CO[C@H](CO)CO4)C3)nc(C)n2)ccc1F
> 8.00	COc1cc(CNC(=O)c2cc(C3=NOC(c4ccc(C(N)=O)cc4)C3)nc(C)n2)ccc1F (stereo not drawn)
> 8.00	CNC(=O)N1CCC(C2CC(c3cc(C(=O)NCc4ccc(F)c(OC)c4)nc(C)n3)=NO2)CC1 (stereo not drawn)
> 8.00	COc1cc(CNC(=O)c2cc(C3=NO[C@H]([C@H]4CO[C@H](CC#N)CO4)C3)nc(C)n2)ccc1F
> 8.00	COc1cc(CNC(=O)c2cc(C3=NO[C@H]([C@H]4CO[C@H](C(=O)O)CO4)C3)nc(C)n2)ccc1F
> 8.00	COc1cc(CNC(=O)c2cc(C3=NO[C@H]([C@H]4CO[C@H](C(N)=O)CO4)C3)nc(C)n2)ccc1F
> 8.00	COc1cc(CNC(=O)c2cc(C3=NOC([C@H]4CC[C@H](NC(=O)CC#N)CC4)C3)nc(C)n2)ccc1F (stereo partly drawn)
> 8.00	COc1cc(CNC(=O)c2cc(C3=NOC([C@H]4CC[C@H](NS(N)(=O)=O)CC4)C3)nc(C)n2)ccc1F (stereo partly drawn)

pIC50	Compound
> 8.00	CNC(=O)Cn1cc(C2CC(c3cc(C(=O)NCc4ccc(F)c(OC)c4)nc(C)n3)=NO2)ccc1=O (stereo not drawn)
> 8.00	COc1cc(CNC(=O)c2cc(C3=NO[C@H](c4ccn(C)c(=O)c4)C3)nc(C)n2)ccc1F
> 8.00	COc1cc(CNC(=O)c2cc(C3=NOC(c4ccc(=O)n(C(C)C)c4)C3)nc(C)n2)ccc1F (stereo not drawn)
> 8.00	Cc1nc(C(=O)NCc2ccc(F)c(F)c2)cc(C2=NO[C@H](c3ccc(=O)n(C)c3)C2)n1
> 8.00	CNC(=O)Cn1cc([C@@H]2CC(c3cc(C(=O)NCc4ccc(F)c(OC)c4)nc(C)n3)=NO2)ccc1=O
> 8.00	Cc1nc(C(=O)NCc2ccc3c(c2)NC(=O)CO3)cc(C2=NOC(c3ccc(=O)n(C)c3)C2)n1 (stereo not drawn)
> 8.00	COc1cc(CNC(=O)c2cc(C3=NOC(c4ccc(=O)n(CC(=O)N(C)OC)c4)C3)nc(C)n2)ccc1F (stereo not drawn)
> 8.00	CNC(=O)Cn1cc(C2CC(c3cc(C(=O)NCc4ccc(F)c(OC)c4)nc(C)n3)=NO2)cc(Cl)c1=O (stereo not drawn)
> 8.00	CC(=O)N[C@H]1CC[C@H]([C@@H]2CC(c3cc(C(=O)NCc4ccc5c(c4)NC(=O)CO5)nc(C)n3)=NO2)CC1
> 8.00	CC(=O)N[C@H]1CC[C@H]([C@H]2CC(c3cc(C(=O)NCc4ccc5c(c4)NC(=O)CO5)nc(C)n3)=NO2)CC1
> 8.00	Cc1nc(C(=O)NCc2ccc3c(c2)NC(=O)CO3)cc(C2=NOC([C@H]3CC[C@H](NC(=O)[C@H](C)O)CC3)C2)n1 (stereo partly drawn)
> 8.00	COc1cc(CNC(=O)c2cc(C3=NOC(c4cc(Cl)c(=O)n(C5CC5)c4)C3)nc(C)n2)ccc1F (stereo not drawn)
> 8.00	COc1cc(CNC(=O)c2cc(C3=NO[C@H](c4ccc(=O)n(C5CC5)c4)C3)nc(C)n2)ccc1F
> 8.00	Cc1nc(C(=O)NCc2ccc3c(c2)NC(=O)CO3)cc(C2=NOC(c3ccc(=O)n(C4CC4)c3)C2)n1 (stereo not drawn)
> 8.00	COc1cc(CNC(=O)c2cc(C3=NOC(c4ccc(=O)n(CC(=O)NC5CC5)c4)C3)nc(C)n2)ccc1F (stereo not drawn)
> 8.00	Cc1nc(C(=O)NCc2ccc3c(c2)NC(=O)CO3)cc(C2=NO[C@H]([C@H]3CC[C@H](NC(=O)[C@H](C)O)CC3)C2)n1
> 8.00	Cc1nc(C(=O)NCc2ccc3c(c2)NC(=O)CO3)cc(C2=NO[C@@H]([C@H]3CC[C@H](NC(=O)[C@H](C)O)CC3)C2)n1
